In patent US20230398124A1, “SEVEN-MEMBERED RING COMPOUNDS AND METHOD OF USE THEREOF” (Invea Therapeutics, Inc., priority 2022, published 2023):
“Also recorded” adds a separate entry of the source.

Legend:
[1] = test system: Mdr2 knock out (Mdr2 KO) mice; assay: quantitative real time PCR of mast cell, pro-fibrotic and biliary senescence markers in liver of Mdr2 KO mice; type: in vivo, mouse; settings: for Timp2 expression (pro-fibrotic marker): Mdr2 KO = 3.41885191, p<0.0001
Description: (§1) Animal: 10-12 weeks old Mdr2 homozygous knockout (Mdr2 KO) mice were raised on FVB/NJ background. All mice were maintained in a temperature-controlled environment (20° C. to 22° C.) with 12:12-hour light/dark cycles and fed standard chow with access to drinking water ad libitum.
Liver inflammation, fibrosis and biliary senescence was evaluated in liver sections by quantitative real time PCR for mast cell markers such as Mcpt1, Fcer1a, Tpsb2 (See FIG. 3) and pro-fibrotic markers such as Col1a1, Timp2 and Tgfb1, (See FIG. 8)_biliary senescence markers such as Cdkn2a, Cdkn2c, Tgfb1 & Gl1bl. (See FIG. 10). Liver tissue was lysed, and total RNA was isolated using trizol and fold change was calculated using ΔΔCt method.

[2] = test system: Mdr2 knock out (Mdr2 KO) mice; settings: 20 mg/kg i.p., vs untreated Mdr2 KO
Description: Mdr2 knock out (Mdr2 KO) mice are a genetic mouse model of PSC and display similar phenotypes to human PSC. Collagen content, ductular reaction and inflammation are elevated in Mdr2 knock out mice. Mdr2 KO mice also have enhanced mast cell (MC) presence. Total bile acid (TBA) content increases in Mdr2 knock out mice. Accumulation of chymase and tryptase positive mast cells (MC) in the liver was evaluated by immunohistochemistry.
as §1

[3] = test system: DSS-induced colitis C57Bl/6N mice; assay: DSS-induced colitis mouse model (body weight loss, occult blood, stool consistency, DAI); type: in vivo; settings: for DAI score: 20 mg/kg i.p. QD day 3 to 9, 0-4 scale, DSS vehicle 3 and above; for body weight loss (score) / occult blood score / rectal bleeding / stool consistency score / diarrhea: i.p. QD day 3 to 9, Compound 1 20 mg/kg, anti-TNF 15 mg/kg, observed 0-10 days
Description: Animal: For the DSS-induced acute model of experimental colitis, 8-week-old C57Bl/6N mice (weight between 17 and 20 grams, all females from Charles River Laboratories) were used. All mice were maintained in a temperature-controlled environment (20° C.±4° C.) with 12:12-hour light/dark cycles, relative humidity was maintained at 55%±10%, ventilation with 8-10 air changes per hour and fed standard chow with access to drinking water ad libitum.
Mice were treated with one oral cycles of 2.5% DSS (weight/volume) (DSS, molecular mass, 40 kDa; MP Biomedicals), characterized by 7 days of DSS exposure in drinking water, followed by 3 days of regular drinking water.
Administration of drugs: 3 days after starting DSS administration, mice were treated with testing drugs up to day 9, according to the experimental groups and the dose regimen described in table below. 0.5% (w/v) Hydroxypropyl cellulose was used as the vehicle.
From day 0 to 7, the animals received DSS in drinking water and the drugs were administered from day 3 to 9. Body weight and clinical observations such as diarrhea and bleeding from rectum were recorded daily post colitis induction until day 10.
Disease activity Index (DAI) and body weight loss were measured. Colitis severity was calculated using a disease activity index (DAI) score based on daily evaluation of body weight, stool consistency, and presence of blood in the stools, as determined using Hemoccult SENSA Cards (Beckman Coulter).
Grading of intestinal inflammation was determined according to the criteria proposed by Cooper et al (Cooper H S et al., Clinicopathologic study of dextran sulfate sodium experimental murine colitis. Lab Invest. 1993 August; 69(2):238-49, the DAI has been determined by scoring changes in variety of factors such as weight loss, stool consistency, and occult bleeding. The weight loss score ranges from 0 to 4, where zero signals no weight loss, score of 1 indicates the presence of 1-5% weight loss, a score of 2 signals the presence of 5-10% weight loss, a score of 3 signals the presence of 10-20% weight loss and a score of 4 represents greater than 20% weight loss. Likewise, the stool consistency score ranges from 0 to 4 with a score of zero representing normal stools, a score of 2 represents loose stools and a score of 4 represents diarrhea. The rectal bleeding is observed by scores ranging from 0 to 4, where a score of zero represents normal or no significant bleeding, a score of 2 indicates the presence of occult bleeding and a score of 4 indicates the presence of gross bleeding. A 5-point (0-4) DAI was obtained by calculating an average of body weight score, stool consistency and rectal bleeding.

[4] = test system: Mdr2 knock out (Mdr2 KO) mice; assay: liver and serum total bile acid accumulation in Mdr2 KO mice, colorimetric assay; type: in vivo, mouse; settings: 20 mg/kg i.p.
Description: as §1
Liver and serum bile acid accumulation was evaluated by using a colorimetric assay from Crystal Chem Inc (cat #80471). For Liver, total bile acid (TBA) was extracted from homogenized liver. For serum, (TBAs) were measured in serum by enzyme immunoassay (EIA). 3-alpha-hydroxysteroid dehydrogenase and Nicotinamide adenine dinucleotide (NAD) converted TBA into 3-keto steroids and NADH. The NADH reacts with nitroblue tetrazolium (NBT) to form a dye and this is measured at 540 nm absorbance.

[5] = test system: Mdr2 knock out (Mdr2 KO) mice; assay: liver staining in Mdr2 KO mice: collagen deposition (Fast Green/Sirius Red), hydroxyproline, F4/80, Desmin; type: in vivo, mouse; settings: for portal tract F4/80 immunoreactivity (macrophage marker) / expression of desmin levels (cholangiocyte activation marker): vs untreated Mdr2 KO; for collagen deposition: Fast Green/Sirius Red staining
Description: Mdr2 knock out (Mdr2 KO) mice are a genetic mouse model of PSC and display similar phenotypes to human PSC. Collagen content, ductular reaction and inflammation are elevated in Mdr2 knock out mice. Mdr2 KO mice also have enhanced mast cell (MC) presence. Total bile acid (TBA) content increases in Mdr2 knock out mice. Accumulation of chymase and tryptase positive mast cells (MC) in the liver was evaluated by immunohistochemistry. Metabolic parameters such as Total Bile Acids (serum and liver), Ductular Reaction (CK-19), Hepatic Fibrosis (Fast Green Sirius Red staining), Collagen deposition, Hydroxyproline levels, Fibrotic Gene Markers, cholangiocyte Activation (Desmin), inflammation and mast cell products, (F4/80, which is a macrophage marker) and Senescence and SASP markers (TGF-β1, p21, p16) are measured to determine the effect of compound 1 in mouse model of hepatobiliary disease.
as §1
Fibrosis in liver was evaluated by quantitatively estimating collagen deposition with Fast green and Sirius red staining of formalin fixed paraffin-embedded liver sections ([…]). Hepatic fibrosis and collagen deposition is evaluated by quantitative Fast Green/Sirius Red staining. Macrophage accumulation was determined by staining for F4/80 antibody. (See FIG. 4) Cholangiocyte activation was analyzed by immunofluorescence for Desmin (See FIG. 5) and CK19 (marker for cholangiocytes). (See FIG. 9)

CCC[C@@H](NC(=O)N1C/C(=N/OCC)NC[C@H](Cc2cc(Cl)ccc2OC)C1=O)c1ccc(C(=O)O)c(N)c1 [Compound 1 monoacetic acid solvate, 2-amino-4-[(1R)-1-({[(3Z,6S)-6-(5-chloro-2-methoxybenzyl)-3-(ethoxyimino)-7-oxo-1,4-diazepan-1-yl]carbonyl}amino)butyl]benzoic acid monoacetic acid solvate]
Tgfb1 expression (pro-fibrotic marker) ([1]; 10 mg/kg i.p., Mdr2 KO = 1.72254177, p=0.0138): 1.133 fold change
Fcer1 expression (mast cell marker) ([1]; 10 mg/kg i.p., Mdr2 KO = 2.20989385, p=0.0058): 1.532 fold change
Tpsb2 expression (mast cell marker) ([1]; 10 mg/kg i.p., Mdr2 KO = 2.21107066, p=0.8750): 1.53 fold change
Mcpt1 expression (mast cell marker) ([1]; 10 mg/kg i.p., Mdr2 KO = 2.33385383, p=0.0237): 0.8094 fold change
Col1a1 expression (pro-fibrotic marker) ([1]; 10 mg/kg i.p., Mdr2 KO = 3.28243911, p=0.0005): 1.509 fold change
Timp2 expression (pro-fibrotic marker) ([1]; 10 mg/kg i.p.): 1.539 fold change
Tgfb1 expression (pro-fibrotic marker) ([1]; 20 mg/kg i.p., Mdr2 KO = 1.72254177, p=0.0018): 0.8986 fold change
Fcer1 expression (mast cell marker) ([1]; 20 mg/kg i.p., Mdr2 KO = 2.20989385, p<0.0001): 0.8866 fold change
Tpsb2 expression (mast cell marker) ([1]; 20 mg/kg i.p., Mdr2 KO = 2.21107066, p=0.7774): 1.341 fold change
Mcpt1 expression (mast cell marker) ([1]; 20 mg/kg i.p., Mdr2 KO = 2.33385383, p=0.0178): 0.723 fold change
Col1a1 expression (pro-fibrotic marker) ([1]; 20 mg/kg i.p., Mdr2 KO = 3.28243911, p<0.0001): 0.9248 fold change
Timp2 expression (pro-fibrotic marker) ([1]; 20 mg/kg i.p.): 0.9494 fold change
Tgfb1 expression (senescence marker) ([1]; 20 mg/kg i.p., Mdr2 KO = 4.188847, p=0.0002): 1.821 fold change
Glb1l expression (senescence marker) ([1]; 20 mg/kg i.p., Mdr2 KO = 13.02486, p=0.0001): 3.319 fold change
Cdkn2c expression (senescence marker) ([1]; 20 mg/kg i.p., Mdr2 KO = 16.05029, p=0.0050): 12.66 fold change
Cdkn2a expression (senescence marker) ([1]; 20 mg/kg i.p., Mdr2 KO = 21.49752, p<0.0001): 3.739 fold change
level of inflammatory marker Tpbs2 [2]: significantly reduced
level of inflammatory marker mMCP1 [2]: significantly reduced
DAI score [3]: decrease
body weight loss (score) [3]: reduction in the body weight loss; also recorded: decrease
occult blood score / rectal bleeding [3]: reduction in bleeding; also recorded: decrease
stool consistency score / diarrhea [3]: reduction in diarrhea; also recorded: decrease
Liver total bile acid content ([4]; Mdr2 KO vehicle = 3.498252, p<0.0001): 1.797 µM
serum bile acid content ([4]; Mdr2 KO vehicle = 62.04502, p<0.0001): 26.24 µM
hydroxyproline accumulation ([5]; 10 mg/kg i.p., Mdr2 KO = 4.871969, p=0.6426): 4.219
hydroxyproline accumulation ([5]; 20 mg/kg i.p., Mdr2 KO = 4.871969, p=0.0078): 2.972
portal tract F4/80 immunoreactivity (macrophage marker) ([5]; 20 mg/kg i.p.): decrease
collagen deposition [5]: restricted
collagen deposition ([5]; listed as compound 1 monoacetic acid solvate): decrease
expression of desmin levels (cholangiocyte activation marker) [5]: decrease

CCC[C@@H](NC(=O)N1C/C(=N/OCC)NC[C@H](Cc2cc(Cl)ccc2OC)C1=O)c1ccc(C(=O)O)c(N)c1 [Compound 1, 2-amino-4-[(1R)-1-({[(3Z,6S)-6-(5-chloro-2-methoxybenzyl)-3-(ethoxyimino)-7-oxo-1,4-diazepan-1-yl]carbonyl}amino)butyl]benzoic acid]
colon length reduction ([3]; 20 mg/kg i.p. QD day 3 to 9): significantly inhibits
DAI score ([3]; 20 mg/kg): significantly attenuated
DAI score ([3]; listed as compound 1, 20 mg/kg): < 2
body weight loss (score) [3]: significantly attenuated
occult blood score / rectal bleeding [3]: significantly attenuated
stool consistency score / diarrhea [3]: significantly attenuated
portal tract F4/80 immunoreactivity (macrophage marker) ([5]; 20 mg/kg i.p.): reduces
expression of desmin levels (cholangiocyte activation marker) [5]: reduction
